Laboratory results reported in patent US12077503B2, “Substituted cyclic amides and their use as herbicides” (FMC CORPORATION, priority 2015, dated 2024).

How the values were obtained:
Format in all cases: in vivo
[1] = tested on: pigweed (Amaranthus retroflexus); test: Test C preemergence; conditions: for Plant response rating, Pigweed: scale 0 to 100, 0 no effect, 100 complete control
Procedure, shortened: (§1)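 Preemergence: sow in loam-sand soil and treat. Postemergence: grow in peat-moss/vermiculite medium to 2–18 cm (1–4 leaves) and spray. Compound in non-phytotoxic solvent with surfactant; keep in greenhouse 13–15 d; score visually against controls, 0 (none) to 100 (full control).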

[2] = tested on: morningglory (Ipomoea coccinea); test: Test C preemergence; conditions: for Plant response rating, Morningglory: scale 0 to 100, 0 no effect, 100 complete control
Procedure, shortened: as §1

[3] = tested on: nutsedge, yellow (yellow nutsedge, Cyperus esculentus); test: Test C preemergence; conditions: for Plant response rating, Nutsedge, Yellow: scale 0 to 100, 0 no effect, 100 complete control
Procedure, shortened: as §1

[4] = tested on: Galium (catchweed bedstraw, Galium aparine); test: Test C preemergence; conditions: for Plant response rating, Galium: scale 0 to 100, 0 no effect, 100 complete control
Procedure, shortened: as §1

[5] = tested on: barnyardgrass (Echinochloa crus-galli); test: Test C preemergence; conditions: for Plant response rating, Barnyardgrass: scale 0 to 100, 0 no effect, 100 complete control
Procedure, shortened: as §1

[6] = tested on: ragweed (common ragweed, Ambrosia elatior); test: Test C preemergence; conditions: for Plant response rating, Ragweed: scale 0 to 100, 0 no effect, 100 complete control
Procedure, shortened: as §1

soybean (Glycine max) = test: Test C preemergence; conditions: for Plant response rating, Soybean: scale 0 to 100, 0 no effect, 100 complete control
Procedure, shortened: as §1

[7] = tested on: ryegrass, Italian (Italian ryegrass, Lolium multiflorum); test: Test C preemergence; conditions: for Plant response rating, Ryegrass, Italian: scale 0 to 100, 0 no effect, 100 complete control
Procedure, shortened: as §1

corn (Zea mays) = test: Test C preemergence; conditions: for Plant response rating, Corn: scale 0 to 100, 0 no effect, 100 complete control
Procedure, shortened: as §1

[8] = tested on: waterhemp (common waterhemp, Amaranthus rudis); test: Test C preemergence; conditions: for Plant response rating, Waterhemp: scale 0 to 100, 0 no effect, 100 complete control
Procedure, shortened: as §1

[9] = tested on: crabgrass, large (large crabgrass, Digitaria sanguinalis); test: Test C preemergence; conditions: for Plant response rating, Crabgrass, Large: scale 0 to 100, 0 no effect, 100 complete control
Procedure, shortened: as §1

[10] = tested on: johnsongrass (Sorghum halepense); test: Test C preemergence; conditions: for Plant response rating, Johnsongrass: scale 0 to 100, 0 no effect, 100 complete control
Procedure, shortened: as §1

[11] = tested on: velvetleaf (Abutilon theophrasti); test: Test C preemergence; conditions: for Plant response rating, Velvetleaf: scale 0 to 100, 0 no effect, 100 complete control
Procedure, shortened: as §1

[12] = tested on: lambsquarters (Chenopodium album); test: Test C preemergence; conditions: for Plant response rating, Lambsquarters: scale 0 to 100, 0 no effect, 100 complete control
Procedure, shortened: as §1

[13] = tested on: foxtail, giant (giant foxtail, Setaria faberii); test: Test C preemergence; conditions: for Plant response rating, Foxtail, Giant: scale 0 to 100, 0 no effect, 100 complete control
Procedure, shortened: as §1

[14] = tested on: oilseed rape (Brassica napus); test: Test C preemergence; conditions: for Plant response rating, Oilseed Rape: scale 0 to 100, 0 no effect, 100 complete control
Procedure, shortened: as §1

[15] = tested on: blackgrass (Alopecurus myosuroides); test: Test C preemergence; conditions: for Plant response rating, Blackgrass: scale 0 to 100, 0 no effect, 100 complete control
Procedure, shortened: as §1

[16] = tested on: wheat (winter wheat, Triticum aestivum); test: Test C preemergence; conditions: for Plant response rating, Wheat: scale 0 to 100, 0 no effect, 100 complete control
Procedure, shortened: as §1

[17] = tested on: barnyardgrass (Echinochloa crus-galli); test: Test C flooded paddy test; conditions: Flood, 0 is no effect, 100 is complete control
Procedure, shortened: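 Plants grown to the 2-leaf stage in pots flooded to 3 cm above soil; compounds applied directly into the paddy water, depth held throughout. After 13 to 15 d in greenhouse, injury visually rated against untreated controls on a 0–100 scale (0 no effect, 100 complete control).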

[18] = 31 g ai/ha, 0 is no effect, 100 is complete control

CN1CC(c2ccc(F)c(C(F)(F)F)c2)C(C(=O)Nc2ccccc2S(C)(=O)=O)C1=O (stereo not shown) [Compound 612]
100: Plant response rating, Crabgrass, Large ([9]; 250 g ai/ha)
98: Plant response rating, Barnyardgrass ([5]; 250 g ai/ha) | Plant response rating (scale of 0 to 100), Crabgrass, Large [9, 18] | Plant response rating, Crabgrass, Large ([9]; 125 g ai/ha)
30: Plant response rating, Corn (corn (Zea mays); 62 g ai/ha) | Plant response rating, Velvetleaf ([11]; 125 g ai/ha) | Plant response rating (scale of 0 to 100), Oilseed Rape [14, 18]
35: Plant response rating, Nutsedge, Yellow ([3]; 250 g ai/ha)
60: Plant response rating (scale of 0 to 100), Pigweed [1, 18] | Plant response rating, Johnsongrass ([10]; 62 g ai/ha) | Plant response rating, Velvetleaf ([11]; 250 g ai/ha)
25: Plant response rating, Morningglory ([2]; 125 g ai/ha) | Plant response rating, Nutsedge, Yellow ([3]; 125 g ai/ha) | Plant response rating, Wheat ([16]; 125 g ai/ha)
10: Plant response rating (scale of 0 to 100), Ragweed [6, 18] | Plant response rating, Ragweed ([6]; 62 g ai/ha) | Plant response rating, Soybean (soybean (Glycine max); 125 g ai/ha) | Plant response rating, Velvetleaf ([11]; 62 g ai/ha)
65: Plant response rating, Ragweed ([6]; 250 g ai/ha) | Plant response rating, Corn (corn (Zea mays); 125 g ai/ha)
40: Plant response rating, Ryegrass, Italian ([7]; 62 g ai/ha) | Plant response rating (scale of 0 to 100), Corn (corn (Zea mays); [18]) | Plant response rating (scale of 0 to 100), Johnsongrass [10, 18] | Plant response rating, Lambsquarters ([12]; 125 g ai/ha)
95: Plant response rating, Barnyardgrass ([5]; 62 g ai/ha) | Plant response rating, Barnyardgrass ([5]; 125 g ai/ha) | Plant response rating, Waterhemp ([8]; 250 g ai/ha) | Plant response rating, Crabgrass, Large ([9]; 62 g ai/ha) | Plant response rating, Foxtail, Giant ([13]; 125 g ai/ha) | Plant response rating, Foxtail, Giant ([13]; 250 g ai/ha) | Plant response rating, Blackgrass ([15]; 250 g ai/ha)
75: Plant response rating (scale of 0 to 100), Waterhemp [8, 18]
45: Plant response rating (scale of 0 to 100), Lambsquarters [12, 18] | Plant response rating, Lambsquarters ([12]; 62 g ai/ha)
85: Plant response rating (scale of 0 to 100), Barnyardgrass [5, 18] | Plant response rating, Waterhemp ([8]; 62 g ai/ha) | Plant response rating, Johnsongrass ([10]; 125 g ai/ha)
0: Plant response rating (scale of 0 to 100), Morningglory [2, 18] | Plant response rating, Morningglory ([2]; 62 g ai/ha) | Plant response rating (scale of 0 to 100), Nutsedge, Yellow [3, 18] | Plant response rating, Nutsedge, Yellow ([3]; 62 g ai/ha) | Plant response rating, Galium ([4]; 62 g ai/ha) | Plant response rating (scale of 0 to 100), Soybean (soybean (Glycine max); [18]) | Plant response rating, Soybean (soybean (Glycine max); 62 g ai/ha) | Plant response rating, Soybean (soybean (Glycine max); 250 g ai/ha) | Plant response rating (scale of 0 to 100), Velvetleaf [11, 18] | Plant response rating (scale of 0 to 100), Barnyardgrass ([17]; 31 g ai/ha) | Plant response rating (scale of 0 to 100), Barnyardgrass ([17]; 62 g ai/ha) | Plant response rating (scale of 0 to 100), Barnyardgrass ([17]; 125 g ai/ha)
80: Plant response rating, Pigweed ([1]; 62 g ai/ha) | Plant response rating (scale of 0 to 100), Galium [4, 18] | Plant response rating, Ryegrass, Italian ([7]; 250 g ai/ha)
55: Plant response rating, Morningglory ([2]; 250 g ai/ha) | Plant response rating, Ragweed ([6]; 125 g ai/ha) | Plant response rating, Wheat ([16]; 62 g ai/ha) | Plant response rating (scale of 0 to 100), Barnyardgrass ([17]; 250 g ai/ha)
20: Plant response rating (scale of 0 to 100), Ryegrass, Italian [7, 18] | Plant response rating (scale of 0 to 100), Wheat [16, 18]
70: Plant response rating, Corn (corn (Zea mays); 250 g ai/ha) | Plant response rating, Lambsquarters ([12]; 250 g ai/ha) | Plant response rating, Oilseed Rape ([14]; 125 g ai/ha) | Plant response rating (scale of 0 to 100), Blackgrass [15, 18]
50: Plant response rating, Ryegrass, Italian ([7]; 125 g ai/ha) | Plant response rating, Oilseed Rape ([14]; 62 g ai/ha)
90: Plant response rating, Pigweed ([1]; 125 g ai/ha) | Plant response rating, Pigweed ([1]; 250 g ai/ha) | Plant response rating, Galium ([4]; 125 g ai/ha) | Plant response rating, Galium ([4]; 250 g ai/ha) | Plant response rating, Waterhemp ([8]; 125 g ai/ha) | Plant response rating, Johnsongrass ([10]; 250 g ai/ha) | Plant response rating (scale of 0 to 100), Foxtail, Giant [13, 18] | Plant response rating, Foxtail, Giant ([13]; 62 g ai/ha) | Plant response rating, Oilseed Rape ([14]; 250 g ai/ha) | Plant response rating, Blackgrass ([15]; 62 g ai/ha) | Plant response rating, Blackgrass ([15]; 125 g ai/ha) | Plant response rating, Wheat ([16]; 250 g ai/ha)
